Read-outs that look alike come from different tables or passages of the source.
Columns and labels:
A549 = assay: MTT test, overall cell growth; type: cell-based, human; details: 72 hours of incubation
Method: (§1) In order to characterize the in vitro activities of the compounds according to the invention, MTT tests were carried out. The MTT test, which is a well-known test in the art, is an indirect technique that rapidly measures, i.e. within 5 days, the effect of a given product on the overall cell growth. This test measures the number of metabolically active living cells that are able to transform the MTT product (3-(4,5-dimethylthiazol-2-yl)-2,5 diphenyl tetrazolium bromide), having a yellowish color, to the blue product formazan dye by mitochondrial reduction. The amount of formazan obtained at the end of the experiment is measured with a spectrophotometer and is directly proportional to the number of living cells. Determination of the optical density enables a quantitative measurement of the effect of the investigated compounds as compared to the control condition (untreated cells) and to compare it to other reference compound. In the following examples different compounds according to the invention were tested and compared to the reference compound being uscharin.
(§2) Six human cancer cell lines, described in Table C, were tested in the presence of compounds according to the invention. These cell lines covered four histological cancer types, being Glioma, colon, lung and bladder cancer. The cells were allowed to grow in 96-well micro wells with a flat bottom with an amount of 100 μl of cell suspension per well in reason to 4000 cells/well depending on cell type. Each cell line was seeded in its own cell culture medium (Table C).
(§3) After a 24-hour period of incubation at 37° C., the culture medium is replaced by 100 μl of fresh medium in which the compound to be tested has been dissolved at different required concentrations. Different compounds were tested at 10^−9 M, 5×10^−9 M, 10^−8 M, 5×10^−8 M, 10^−7 M, 5×10^−7 M, 10^−6 M, 5×10^−6 M et 10^−5 M. Each experimental condition is carried out in hexaplicate. The compounds tested are 2″ oxo-voruscharin, and compounds B, C, D, E, H and I represented in Table B above.
(§4) After 72 hours of incubation at 37° C. with the compound (experimental conditions) or without the compound (control condition), the medium was replaced by 100 μl MTT at the concentration of 1 mg/ml dissolved in RPMI. The micro wells were subsequently incubated during 3 hours at 37° C. and centrifuged at 400 g during 10 minutes. The MTT was removed and formazan crystals formed, were dissolved in 100 μl DMSO. The micro wells were shaken for 5 minutes and read on a spectrophotometer at the wavelengths of 570 nm corresponding to the maximum formazan absorbance wavelength, and of 630 nm, which is the background noise wavelength.
(§5) For each experimental condition, the mean OD associated with the SEM (standard error of the mean) for each condition (6 wells) was calculated. The percentage of remaining living cells in comparison with the control was calculated. Results of these experiments are represented in FIGS. 2 to 8.

HCT-15 = assay: MTT test, overall cell growth; type: cell-based, human
Method: as §1, §2, §3, §4, §5

Hs683 = assay: MTT test, overall cell growth; type: cell-based, human
Method: as §1, §2, §3, §4, §5

J82 = assay: MTT test, overall cell growth; type: cell-based, human
Method: as §1, §2, §3, §4, §5

LoVo = assay: MTT test, overall cell growth; type: cell-based, human; details: 72 hours of incubation
Method: as §1, §2, §3, §4, §5

U-373 MG = assay: MTT test, overall cell growth; type: cell-based, human; details: U-373, MTT, 72 hours of incubation
Method: as §1, §2, §3, §4, §5

[1] = Maximum Tolerated Dose in healthy mice; type: in vivo; details: single administration in mice, healthy animals, 14 days post-injection
Method: The Maximum Tolerated Dose (MTD) of a given drug is defined as the maximum amount of a drug which can be administered acutely (i.e. in one i.p., i.v., s.c. or per os single dose) to healthy animals, i.e. animals not grafted with tumors. The survival times and weights of the animals are recorded up to 14 days post-injection. Five different doses of each drug are used for the determination of the MTD index. When the MTD index is higher than 160 mg/kg (i.p. administration) the drug is usually considered to be non-toxic, and the highest dose administered to tumor-bearing mice is MTD/2=80 mg/kg. Each experimental group was composed of 3 mice for the determination of the MTD index.

C32 (melanoma cancer) = assay: Sub-cutaneous melanoma cancer model; type: in vivo, mice; details: for T/C index: three times a week
Method: (§6) Three types of results were obtained with in vivo anti-tumor pharmacology: 1) the cumulative toxicity of chemotherapeutic administrations through recording the weights of the tumor-bearing mice during treatment, 2) the actual anti-tumor effect exerted at tumor growth level. If the tumor models are grafted subcutaneously (s.c.), tumor size is measured three times a week by means of a caliper and expressed as an area (mm^2) by multiplying together the two largest perpendicular diameters, and 3) the gain in survival for the animals treated, which is evaluated by means of the T/C index. This index is the ratio between the median survival time of the group of treated animals (T) and that of the control group. The drug is considered to be active if the T/C value is above 130% (P<0.05), and toxic for a value lower than 70%.
The antitumoral activity of compound B was evaluated in different xenografted models: sub-cutanous model: MCF-7-TD5 (breast cancer) and C32 (melanoma cancer) and orthotopic model: A549 (lung cancer).
Experimental melanomas were set up in mice by painting their skins with a carcinogen. These experimental melanomas display certain morphological characteristics close to those of human melanomas but are less aggressive biologically. Compound B was assayed at DMT/4 (20 mg/kg), DMT/8 (10 mg/kg) and DMT/16 (5 mg/kg) three times a week. […] Indeed the T/C index values measured were respectively 95%, 107% and 81%.

[2] = tested on: Capan-2 orthotopic xenograft; assay: Orthotopic pancreatic cancer model; type: in vivo, nude mice
Method: as §6
In addition to the xenografted models of Example 6, the antitumoral activity of compound B was evaluated in orthotopic xenografted models PC3 (Prostate) and Capan2 (Pancreas).
Compound B was further evaluated on in vivo orthotopic Capan-2 pancreatic cancer model by measurement of T/C index, as described in Example 6 of the specification.

Q: Which results are given for CC1CC2(NC(=O)CS2)C2(O)OC3CC4(CO)C(CCC5C4CCC4(C)C(C6=CC(=O)OC6)CCC54O)CC3OC2O1 (stereo not drawn) [Compound B]?
A: IC50 (A549): 10 nM; IC50 (HCT-15; HCT-15, MTT, 72 hours of incubation, read-out: IC50 value): 10 to 50 nM; IC50 (Hs683; Hs683, MTT, 72 hours of incubation, read-out: IC50 value): 1000 to 5000 nM; IC50 (J82; J82, MTT, 72 hours of incubation, read-out: IC50 value): 5000 to 10000 nM; IC50 (LoVo): 1 to 5 nM; IC50 (U-373 MG): 10 to 50 nM; MTD index [1]: 80 mg/kg; T/C index (C32 (melanoma cancer); C32, 21×5 mg/kg): 81%; T/C index (C32 (melanoma cancer); C32, 25×20 mg/kg): 95%; T/C index (C32 (melanoma cancer); C32, 28×10 mg/kg): 107%; tumor area (C32 (melanoma cancer); C32-tumor bearing mice, most important effect at 10 mg/kg): decreased the tumor area; weight of C32-tumor bearing mice (toxic side effects) (C32 (melanoma cancer); constant administration, 20, 10 and 5 mg/kg): did not loose any significant weight; T/C value ([2]; i.p. DMT/4 (20 mg/kg), 3ix5w, from 21st day post-graft): 129%; T/C value ([2]; i.p. DMT/8 (10 mg/kb), 5ix8w, from 14th day post-graft): 127%

Q: For CC1CC2(NC(=O)CS2)C2(O)OC3CC4(C=O)C(CCC5C4CCC4(C)C(C6=CC(=O)OC6)CCC54O)CC3OC2O1 (stereo not drawn) [2″oxo-voruscharin, 2″ oxo-voruscharin], which IC50 (A549; Homo sapiens) is on record?
A: 10 to 50 nM

Q: And the IC30 (HCT-15; HCT-15, Table E, concentration which kills 30% of the cell population)?
A: 4.1 nM

Q: What about the IC50 (HCT-15; Homo sapiens, HCT-15, MTT, 72 hours of incubation, read-out: IC50 value) of the same compound?
A: 10 to 50 nM

Q: And the IC50 (HCT-15; Homo sapiens, HCT-15, Table E, concentration used for flow cytometry, chosen in accordance with MTT results, read-out: IC50)?
A: 12 nM

Q: And the IC50 (Hs683; Homo sapiens, Hs 683, Hs683, MTT, 72 hours of incubation, read-out: IC50 value)?
A: 1 to 5 nM

Q: What about the IC50 (Hs683; Homo sapiens, Hs 683, Hs683, Table E, concentration used for flow cytometry, chosen in accordance with MTT results, read-out: IC50) of the same compound?
A: 170 nM

Q: What about the IC30 (Hs683; Hs683, Table E, concentration which kills 30% of the cell population) of the same compound?
A: 8.3 nM

Q: What about the IC50 (J82; Homo sapiens, J82, MTT, 72 hours of incubation, read-out: IC50 value) of the same compound?
A: > 10000 nM

Q: What about the IC50 (J82; Homo sapiens, J82, Table E, concentration used for flow cytometry, chosen in accordance with MTT results, read-out: IC50) of the same compound?
A: 4100 nM

Q: And the IC30 (J82; J82, Table E, concentration which kills 30% of the cell population)?
A: 1700 nM

Q: What about the IC50 (LoVo; Homo sapiens) of the same compound?
A: 5 to 10 nM

Q: What about the IC50 (U-373 MG; Homo sapiens, U373 MG) of the same compound?
A: 10 to 50 nM

Q: What about the MTD index [1] of the same compound?
A: 20 mg/kg

— US7981875B2, “2″ oxo-voruscharin and derivatives thereof” (priority 2002, dated 2011)
